Target: T1, human FXR (NR1H4) (Homo sapiens, UniProt Q96RI1)
T1 construct: host or cells: CHO (Chinese hamster ovary) reporter cells
T1 sequence (Q96RI1 1-486): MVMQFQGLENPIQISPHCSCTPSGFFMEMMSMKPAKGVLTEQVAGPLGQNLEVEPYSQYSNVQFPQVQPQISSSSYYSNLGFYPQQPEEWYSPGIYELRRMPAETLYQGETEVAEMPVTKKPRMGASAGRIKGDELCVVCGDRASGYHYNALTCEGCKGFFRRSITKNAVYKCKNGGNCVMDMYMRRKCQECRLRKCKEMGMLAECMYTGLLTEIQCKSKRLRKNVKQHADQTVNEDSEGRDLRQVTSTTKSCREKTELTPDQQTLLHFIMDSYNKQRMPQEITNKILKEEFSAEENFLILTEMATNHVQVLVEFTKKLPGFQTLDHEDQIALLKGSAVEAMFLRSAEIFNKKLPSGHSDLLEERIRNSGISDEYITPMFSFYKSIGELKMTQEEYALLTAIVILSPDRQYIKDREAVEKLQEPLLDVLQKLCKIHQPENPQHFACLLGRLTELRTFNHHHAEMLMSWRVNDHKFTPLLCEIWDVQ
Assay: Human FXR (NR1H4) Assay (Gal4 promoter driven luciferase reporter, CHO cells)
Assay type: cell-based
Details: for EC50: FXR reporter assay in CHO cells expressing human NR1H4, 22 hours incubation, potency ranges; for Efficacy (%): normalized to CDCA set as 100%, FXR reporter assay in CHO cells
Excerpt: Human FXR (NR1H4) Assay Determination of a ligand mediated Gal4 promoter driven transactivation to quantify ligand binding mediated activation of FXR. FXR Reporter Assay kit purchased from Indigo Bioscience (Catalogue number: IB00601) to determine the potency and efficacy of compound developed by Enanta that can induce FXR activation. The principle application of this reporter assay system is to quantify functional activity of human FXR. The assay utilizes non-human mammalian cells, CHO (Chinese hamster ovary) cells engineered to express human NR1H4 protein (referred to as FXR). Reporter cells also incorporate the cDNA encoding beetle luciferase which catalyzes the substrates and yields photon emission. Luminescence intensity of the reaction is quantified using a plate-reading luminometer, Envision. Reporter Cells include the luciferase reporter gene functionally linked to an FXR responsive promoter. Thus, quantifying changes in luciferase expression in the treated reporter cells provides a sensitive surrogate measure of the changes in FXR activity. […] The assay is according to the manufacturer's instructions. In brief, the assay was performed in white, 96 well plates using final volume of 100 ul containing cells with different doses of compounds. Retrieve Reporter Cells from −80° C. storage. Perform a rapid thaw of the frozen cells by transferring a 10 ml volume of 37° C. cell recovery medium into the tube of frozen cells. Recap the tube of Reporter Cells and immediately place it in a 37° C. water bath for 5-10 minutes. Retrieve the tube of Reporter Cell Suspension from the water bath. Sanitize the outside surface of the tube with a 70% alcohol swab, and then transfer it into the cell culture hood. Dispense 90 μl of cell suspension into each well of the 96-well Assay Plate. Transfer the plate into 37° C. incubator, allowing the cells adherent to the bottom of the well. Dilute compounds in Dilution Plate (DP), and administrate to cells at Assay Plate (AP). DMSO content of the samples was kept at 0.2%. Cells were incubated for additional 22 hours before luciferase activities were measured. Thirty minutes before intending to quantify FXR activity, remove Detection Substrate and Detection Buffer from the refrigerator and place them in a low-light area so that they may equilibrate to room temperature. Remove the plate's lid and discard all media contents by ejecting it into an appropriate waste container. Gently tap the inverted plate onto a clean absorbent paper towel to remove residual droplets. Cells will remain tightly adhered to well bottoms. Add 100 μl of luciferase detection reagent to each well of the assay plate. Allow the assay plate to rest at room temperature for at least 5 minutes following the addition of LDR. Set the instrument (Envision) to perform a single 5 second “plate shake” prior to reading the first assay well. Read time may be 0.5 second (500 mSec) per well.

EC50 [nM] | Efficacy (%) | Structure (SMILES)
< 100 | 304 | O=C(O)c1ccc2nc(N3CCC(OCc4c(-c5c(Cl)cccc5Cl)noc4C4CC4)CC3)sc2c1 [Compound (1), reference compound]
100 to 1000 | 122 | O=C(NS(=O)(=O)C1CC1)c1ccc2nc(N3CCC(OCc4c(-c5c(Cl)cccc5Cl)noc4C4CC4)CC3)sc2c1 [Example 11]
< 100 | 129 | CN(C)S(=O)(=O)NC(=O)c1ccc2nc(N3CCC(OCc4c(-c5c(Cl)cccc5Cl)noc4C4CC4)CC3)sc2c1 [Example 26]
